pIC50: −log10 of the molar value.
Columns and labels:
[1] = Apparent permeability across apical to basolateral side in human Caco-2 cells incubated for 2 hrs by LC-MS/MS analysis; format: ADME, cell-based
[2] = Metabolic stability in human liver microsomes assessed as intrinsic clearance at 1 uM by LC-MS/MS analysis; format: ADME, Microsome; settings: read-out: CLH
[3] = Metabolic stability in rat liver microsomes assessed as intrinsic clearance at 1 uM by LC-MS/MS analysis; format: ADME, Microsome; settings: read-out: CLH
[4] = Metabolic stability in mouse liver microsomes assessed as intrinsic clearance at 1 uM by LC-MS/MS analysis; format: ADME, Microsome; settings: read-out: CLH
[5] = Metabolic stability in dog liver microsomes assessed as intrinsic clearance at 1 uM by LC-MS/MS analysis; format: ADME, Canis lupus familiaris, Microsome; settings: read-out: CLH
[6] = Protein binding in human plasma assessed as unbound fraction by LC-MS/MS based equilibrium dialysis method; format: ADME, cell-free
[7] = Protein binding in rat plasma assessed as unbound fraction by LC-MS/MS based equilibrium dialysis method; format: ADME, cell-free
[8] = Protein binding in mouse plasma assessed as unbound fraction by LC-MS/MS based equilibrium dialysis method; format: ADME, cell-free
[9] = Protein binding in dog plasma assessed as unbound fraction by LC-MS/MS based equilibrium dialysis method; format: ADME, cell-free, Canis lupus familiaris
[10] = biological target: T1, Cytochrome P450 1A2 (Homo sapiens, UniProt P05177); test: Inhibition of CYP1A2 in human pooled liver microsomes using phenacetin as substrate in presence of NADPH by LC-MS/MS analysis; format: ADME
T1 sequence (P05177 whole entry): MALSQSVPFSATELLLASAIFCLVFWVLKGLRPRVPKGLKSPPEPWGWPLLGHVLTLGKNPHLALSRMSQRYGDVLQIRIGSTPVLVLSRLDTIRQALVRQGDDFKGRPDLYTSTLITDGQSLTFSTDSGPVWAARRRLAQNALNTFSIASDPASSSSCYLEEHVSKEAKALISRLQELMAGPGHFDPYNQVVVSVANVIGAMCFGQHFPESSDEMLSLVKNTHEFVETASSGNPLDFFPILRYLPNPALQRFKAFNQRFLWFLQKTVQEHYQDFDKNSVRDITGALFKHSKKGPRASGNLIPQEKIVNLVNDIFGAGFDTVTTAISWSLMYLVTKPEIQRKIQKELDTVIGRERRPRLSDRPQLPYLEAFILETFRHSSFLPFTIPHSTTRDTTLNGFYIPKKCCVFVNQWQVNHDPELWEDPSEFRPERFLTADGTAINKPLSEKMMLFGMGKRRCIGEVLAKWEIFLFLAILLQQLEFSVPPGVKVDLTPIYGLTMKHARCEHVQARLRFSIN

[11] = biological target: Cytochrome P450 2C9 (Homo sapiens, UniProt P11712); test: Inhibition of CYP2C9 in human pooled liver microsomes using diclofenac as substrate in presence of NADPH by LC-MS/MS analysis; format: ADME
[12] = biological target: Cytochrome P450 2C19 (Homo sapiens, UniProt P33261); test: Inhibition of CYP2C19 in human pooled liver microsomes using S-mephenytoin as substrate in presence of NADPH by LC-MS/MS analysis; format: ADME
[13] = biological target: Cytochrome P450 2D6 (Homo sapiens, UniProt P10635); test: Inhibition of CYP2D6 in human pooled liver microsomes using dextromethorphan as substrate in presence of NADPH by LC-MS/MS analysis; format: ADME
[14] = biological target: Cytochrome P450 3A4 (Homo sapiens, UniProt P08684); test: Inhibition of CYP3A4 in human pooled liver microsomes using midazolam and testosterone as substrate in presence of NADPH by LC-MS/MS analysis; format: ADME
[15] = species on record: Homo sapiens; test: Inhibition of recombinant […] human B-Raf V599E mutant (416 to end residues) assessed as residual activity at 0.5 uM using myelin basic protein as substrate incubated for 40 mins in presence of [gamma-33ATP] by scintillation counting based radiometry assay relative to control
[16] = biological target: Mast/stem cell growth factor receptor Kit (Homo sapiens) (UniProt P10721); test: Inhibition of recombinant human c-Kit (544 to end residues) assessed as residual activity at 0.5 uM using poly(Glu, Tyr) 4:1 as substrate measured after 40 mins in presence of [gamma33P]ATP by scintillation counting method
[17] = biological target: Hepatocyte growth factor receptor (Homo sapiens) (UniProt P08581); test: Inhibition of recombinant human MET (974 to end residues) assessed as residual activity at 0.5 uM using KKKGQEEEYVFIE as substrate incubated for 40 mins in presence of [gamma-33ATP by scintillation counting based radiometry assay relative to control
[18] = biological target: Proto-oncogene tyrosine-protein kinase ROS (Homo sapiens, UniProt P08922); test: Inhibition of recombinant human Ros1 (1883 to end residues) assessed as residual activity at 0.5 uM using KKKSPGEYVNIEFG as substrate measured after 40 mins in presence of [gamma33P]ATP by scintillation counting method relative to control
[19] = biological target: Proto-oncogene tyrosine-protein kinase Src (Homo sapiens) (UniProt P12931); test: Inhibition of human Src (1 to 530 residues) assessed as residual activity at 0.5 uM using GGEEEEYFELVKKKK as substrate measured after 40 mins in presence of [gamma33P]ATP by scintillation counting method relative to control
[20] = C0 in male Sprague-Dawley rat at 2 mg/kg, iv measured up to 24 hrs by LC/MS/MS analysis; format: ADME, organism-based; settings: in vivo
[21] = system: BaF3; test: Cytotoxicity against mouse BaF3 cells transfected with TrKA G595R mutant assessed as reduction in cell viability by MTT assay; format: functional, cell-based
[22] = system: BaF3; test: Cytotoxicity against mouse BaF3 cells transfected with TrKA F589L mutant assessed as reduction in cell viability by MTT assay; format: functional, cell-based
[23] = system: BaF3; test: Cytotoxicity against mouse BaF3 cells transfected with TrKA G667A mutant assessed as reduction in cell viability by MTT assay; format: functional, cell-based
[24] = system: BaF3; test: Cytotoxicity against mouse BaF3 cells transfected with TrKA G623R mutant assessed as reduction in cell viability by MTT assay; format: functional, cell-based
[25] = system: BaF3; test: Cytotoxicity against mouse BaF3 cells transfected with SLC34A2-Ros1 assessed as reduction in cell viability by MTT assay; format: functional, cell-based
[26] = biological target: NT-3 growth factor receptor (Homo sapiens, UniProt Q16288)
Description: Inhibition of TrKC (unknown origin) incubated for 120 mins in presence of 33P-ATP

[27] = system: BaF3; test: cells; settings: Mus musculus
Description: Cytotoxicity against mouse BaF3 cells transfected with TrKA assessed as reduction in cell viability by MTT assay

[28] = Tmax in Sprague-Dawley rat at 10 mg/kg, po measured up to 24 hrs by LC-MS analysis; format: ADME, organism-based; settings: in vivo
[29] = Toxicity in […] xenografted with mouse BaF3 cells transfected with ETV6-NTRK3 assessed as death at 100 mg/kg, po administered once daily for 21 days and measured twice weekly; format: organism-based; settings: in vivo, 504 h, time 21 day
[30] = Toxicity in […] xenografted with mouse BaF3 cells transfected with ETV6-NTRK3-G623R mutant assessed as death at 100 mg/kg, po administered once daily for 21 days and measured twice weekly; format: organism-based; settings: in vivo, 504 h, time 21 day

Chain of Cytochrome P450 2C9 (P11712 whole entry): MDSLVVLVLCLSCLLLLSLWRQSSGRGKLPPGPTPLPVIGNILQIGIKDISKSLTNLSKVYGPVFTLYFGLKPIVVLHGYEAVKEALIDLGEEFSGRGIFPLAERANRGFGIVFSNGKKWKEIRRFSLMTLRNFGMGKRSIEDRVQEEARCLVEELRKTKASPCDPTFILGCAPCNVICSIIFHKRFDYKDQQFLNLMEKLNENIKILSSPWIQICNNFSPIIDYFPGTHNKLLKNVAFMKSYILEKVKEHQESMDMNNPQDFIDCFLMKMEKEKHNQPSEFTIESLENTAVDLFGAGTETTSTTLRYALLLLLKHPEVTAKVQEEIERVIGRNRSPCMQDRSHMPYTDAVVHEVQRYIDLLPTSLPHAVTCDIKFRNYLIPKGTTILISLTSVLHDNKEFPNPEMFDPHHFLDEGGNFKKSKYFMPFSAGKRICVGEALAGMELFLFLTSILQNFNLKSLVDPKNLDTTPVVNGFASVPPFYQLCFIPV
Chain of Cytochrome P450 2C19 (P33261 whole entry): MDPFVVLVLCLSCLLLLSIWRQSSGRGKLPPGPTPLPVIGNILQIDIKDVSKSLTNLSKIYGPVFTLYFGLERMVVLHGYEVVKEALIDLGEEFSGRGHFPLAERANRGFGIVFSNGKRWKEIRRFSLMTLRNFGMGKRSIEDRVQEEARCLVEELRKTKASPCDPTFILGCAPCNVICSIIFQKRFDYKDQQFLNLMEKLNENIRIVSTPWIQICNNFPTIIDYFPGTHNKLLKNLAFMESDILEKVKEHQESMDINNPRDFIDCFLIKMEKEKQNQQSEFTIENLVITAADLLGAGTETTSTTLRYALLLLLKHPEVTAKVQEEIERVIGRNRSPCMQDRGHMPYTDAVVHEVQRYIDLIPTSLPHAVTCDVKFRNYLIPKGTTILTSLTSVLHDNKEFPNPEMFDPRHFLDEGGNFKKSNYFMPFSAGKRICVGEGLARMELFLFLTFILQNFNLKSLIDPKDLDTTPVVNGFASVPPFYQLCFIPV
Chain of Cytochrome P450 2D6 (P10635 whole entry): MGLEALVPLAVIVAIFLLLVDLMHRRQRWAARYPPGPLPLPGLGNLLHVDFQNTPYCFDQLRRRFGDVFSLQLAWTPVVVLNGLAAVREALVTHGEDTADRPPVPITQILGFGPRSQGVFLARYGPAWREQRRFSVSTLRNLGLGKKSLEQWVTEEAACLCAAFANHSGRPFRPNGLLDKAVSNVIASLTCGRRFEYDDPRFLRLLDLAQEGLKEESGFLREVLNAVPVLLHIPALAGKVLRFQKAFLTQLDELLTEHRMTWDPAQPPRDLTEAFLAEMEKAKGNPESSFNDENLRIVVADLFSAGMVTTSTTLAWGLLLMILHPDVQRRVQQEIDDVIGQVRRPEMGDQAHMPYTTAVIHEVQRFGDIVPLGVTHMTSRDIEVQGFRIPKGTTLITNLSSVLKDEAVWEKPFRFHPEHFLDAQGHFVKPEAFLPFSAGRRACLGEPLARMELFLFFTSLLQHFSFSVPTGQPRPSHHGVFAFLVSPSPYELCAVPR
Chain of Cytochrome P450 3A4 (P08684 whole entry): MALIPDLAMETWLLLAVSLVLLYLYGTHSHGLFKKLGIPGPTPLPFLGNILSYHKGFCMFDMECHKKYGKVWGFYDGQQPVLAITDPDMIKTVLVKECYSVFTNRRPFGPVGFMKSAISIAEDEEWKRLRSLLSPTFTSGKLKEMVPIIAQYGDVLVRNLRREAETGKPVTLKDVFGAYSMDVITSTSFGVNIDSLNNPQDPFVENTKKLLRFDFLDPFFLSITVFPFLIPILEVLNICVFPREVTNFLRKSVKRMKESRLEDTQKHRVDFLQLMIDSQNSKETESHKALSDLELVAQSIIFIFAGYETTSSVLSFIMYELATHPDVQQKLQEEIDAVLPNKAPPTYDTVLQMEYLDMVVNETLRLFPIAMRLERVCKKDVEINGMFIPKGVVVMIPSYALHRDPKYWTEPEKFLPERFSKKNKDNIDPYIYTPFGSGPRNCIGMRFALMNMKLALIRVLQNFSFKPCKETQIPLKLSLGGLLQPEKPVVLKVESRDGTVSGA
Chain of Hepatocyte growth factor receptor (Homo sapiens) (P08581 whole entry): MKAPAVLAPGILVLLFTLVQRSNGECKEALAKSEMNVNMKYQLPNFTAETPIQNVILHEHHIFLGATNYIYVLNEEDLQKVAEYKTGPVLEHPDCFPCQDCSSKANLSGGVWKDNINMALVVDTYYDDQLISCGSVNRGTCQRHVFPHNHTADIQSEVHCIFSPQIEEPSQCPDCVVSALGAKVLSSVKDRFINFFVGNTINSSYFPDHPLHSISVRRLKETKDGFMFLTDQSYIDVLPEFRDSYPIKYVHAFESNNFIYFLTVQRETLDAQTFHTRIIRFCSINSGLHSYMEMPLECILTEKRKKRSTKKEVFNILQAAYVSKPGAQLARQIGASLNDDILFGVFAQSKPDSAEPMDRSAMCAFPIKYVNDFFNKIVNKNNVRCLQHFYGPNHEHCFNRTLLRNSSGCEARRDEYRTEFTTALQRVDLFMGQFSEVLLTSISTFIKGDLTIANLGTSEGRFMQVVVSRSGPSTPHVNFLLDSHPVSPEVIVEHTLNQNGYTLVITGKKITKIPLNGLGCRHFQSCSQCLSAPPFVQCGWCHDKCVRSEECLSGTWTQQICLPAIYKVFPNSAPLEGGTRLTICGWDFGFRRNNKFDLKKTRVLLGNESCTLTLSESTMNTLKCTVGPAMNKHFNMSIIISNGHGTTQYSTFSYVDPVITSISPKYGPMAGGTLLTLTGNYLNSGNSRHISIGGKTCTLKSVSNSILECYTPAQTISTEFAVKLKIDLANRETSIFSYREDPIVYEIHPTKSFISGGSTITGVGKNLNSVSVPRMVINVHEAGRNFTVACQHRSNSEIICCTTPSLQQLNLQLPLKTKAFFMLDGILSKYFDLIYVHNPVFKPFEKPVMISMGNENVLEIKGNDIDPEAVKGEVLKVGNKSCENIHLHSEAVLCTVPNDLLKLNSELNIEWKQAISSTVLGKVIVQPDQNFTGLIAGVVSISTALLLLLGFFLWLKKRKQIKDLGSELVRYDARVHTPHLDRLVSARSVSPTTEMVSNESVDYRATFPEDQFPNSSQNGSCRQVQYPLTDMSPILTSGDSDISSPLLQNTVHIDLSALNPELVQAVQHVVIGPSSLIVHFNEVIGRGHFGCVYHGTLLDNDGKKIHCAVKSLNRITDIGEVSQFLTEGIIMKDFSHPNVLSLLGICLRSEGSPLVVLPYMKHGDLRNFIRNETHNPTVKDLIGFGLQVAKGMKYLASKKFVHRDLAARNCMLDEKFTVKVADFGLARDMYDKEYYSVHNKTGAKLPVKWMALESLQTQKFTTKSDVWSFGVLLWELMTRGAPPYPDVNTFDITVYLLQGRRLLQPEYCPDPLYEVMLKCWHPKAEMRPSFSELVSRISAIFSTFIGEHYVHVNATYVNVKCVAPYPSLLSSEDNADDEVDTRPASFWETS
Chain of Proto-oncogene tyrosine-protein kinase Src (Homo sapiens) (P12931 2-536 limits assumed): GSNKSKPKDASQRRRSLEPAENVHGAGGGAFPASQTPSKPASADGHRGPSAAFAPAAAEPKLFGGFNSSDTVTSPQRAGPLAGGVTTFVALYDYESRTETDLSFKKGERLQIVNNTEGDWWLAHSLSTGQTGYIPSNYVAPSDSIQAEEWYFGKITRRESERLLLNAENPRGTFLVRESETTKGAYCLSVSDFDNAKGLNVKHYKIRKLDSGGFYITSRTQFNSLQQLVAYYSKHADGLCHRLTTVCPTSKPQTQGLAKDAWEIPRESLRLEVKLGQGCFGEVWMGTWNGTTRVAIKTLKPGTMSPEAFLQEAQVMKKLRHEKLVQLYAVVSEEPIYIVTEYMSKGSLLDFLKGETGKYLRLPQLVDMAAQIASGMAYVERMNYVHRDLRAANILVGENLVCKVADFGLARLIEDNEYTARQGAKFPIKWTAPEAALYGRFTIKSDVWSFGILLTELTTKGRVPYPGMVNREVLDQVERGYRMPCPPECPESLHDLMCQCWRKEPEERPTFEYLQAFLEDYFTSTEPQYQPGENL
Chain of NT-3 growth factor receptor (Q16288 whole entry): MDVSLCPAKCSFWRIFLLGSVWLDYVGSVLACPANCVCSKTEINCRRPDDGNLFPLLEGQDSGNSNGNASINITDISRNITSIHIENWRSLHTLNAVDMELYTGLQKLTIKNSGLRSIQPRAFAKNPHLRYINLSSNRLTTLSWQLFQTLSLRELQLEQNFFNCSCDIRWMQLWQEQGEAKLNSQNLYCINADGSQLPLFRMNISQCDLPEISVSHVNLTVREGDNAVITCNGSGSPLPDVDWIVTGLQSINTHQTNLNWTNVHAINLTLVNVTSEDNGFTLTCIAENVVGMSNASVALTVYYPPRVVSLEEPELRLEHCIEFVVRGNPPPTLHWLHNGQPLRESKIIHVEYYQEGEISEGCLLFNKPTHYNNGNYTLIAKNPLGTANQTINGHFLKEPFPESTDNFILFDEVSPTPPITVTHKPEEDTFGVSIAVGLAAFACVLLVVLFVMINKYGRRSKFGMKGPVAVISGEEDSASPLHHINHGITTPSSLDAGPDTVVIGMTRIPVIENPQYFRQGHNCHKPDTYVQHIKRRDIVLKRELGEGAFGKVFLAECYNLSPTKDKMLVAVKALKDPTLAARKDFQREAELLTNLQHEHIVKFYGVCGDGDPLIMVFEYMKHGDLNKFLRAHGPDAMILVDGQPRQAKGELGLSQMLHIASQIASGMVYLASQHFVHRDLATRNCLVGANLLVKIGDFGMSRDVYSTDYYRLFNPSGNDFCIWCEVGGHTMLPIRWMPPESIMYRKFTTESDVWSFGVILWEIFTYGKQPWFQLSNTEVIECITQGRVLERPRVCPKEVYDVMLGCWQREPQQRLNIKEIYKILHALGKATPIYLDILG

SMILES	Papp A→B at 2 h [1] [×10⁻⁶ cm/s]	CLint scaled at 1 µM [2] [mL/min/kg]	CLint scaled at 1 µM [3] [mL/min/kg]	CLint scaled at 1 µM [4] [mL/min/kg]	CLint scaled at 1 µM [5] [mL/min/kg]	fraction unbound [6]	fraction unbound [7]	fraction unbound [8]	fraction unbound [9]	pIC50 [10]	pIC50 [11]	pIC50 [12]	pIC50 [13]	pIC50 [14]	pIC50 [21]	pIC50 [22]	pIC50 [23]	pIC50 [24]	pIC50 [25]	pIC50 [27]	other results
O=C1NC2(CC2)COc2ncc(F)cc2[C@H]2COCCN2c2ccn3ncc1c3n2	12	17.7	28.8	1500	< 10.7	0.16	0.12	0.11	0.21	< 4.00	4.74	4.05	< 4.00	< 4.30	8.11	8.31	9.10	8.57	8.64	9.22	Activity [15]: 87%; Activity [16]: 100%; Activity [17]: 98%; Activity [18]: 16%; Activity [19]: 33%; C0 at 24 h [20]: 4.12 µM; pIC50 [26]: 9.70
C[C@@H]1CCc2ncc(F)cc2[C@H]2CCCN2c2ccn3ncc(c3n2)C(=O)N1 [SELITRECTINIB]	8.4	76	92	1350	38	0.34	0.03	0.02	0.2	< 4.30	< 4.30	< 4.30	< 4.30	< 4.30	8.17	7.60	7.61	8.57	7.44	8.31	Tmax [28]: 24 min; Activity [29]: Toxic; Activity [30]: Toxic
